From ChEMBL document CHEMBL5620359, “Discovery of 2,5-disubstituted furan derivatives featuring a benzamide motif for overcoming P-glycoprotein mediated multidrug resistance in MCF-7/ADR cell” (Eur J Med Chem, 2023)

Assays:
Type in all cases: functional
NCI/ADR-RES [1] = experiment: Reversal activity against doxorubicin-mediated resistance in human MCF7ADR cells assessed as reversal fold by measuring ratio of doxorubicin IC50 to doxorubicin IC50 in presence of test compound at 5 uM incubated for 48 hrs by CCK8 assay
NCI/ADR-RES [2] = experiment: Cytotoxicity against human MCF7ADR cells assessed as cell survival rate at 5 uM incubated for 48 hrs by CCK8 assay relative to control
MCF7 = experiment: Cytotoxicity against human MCF7 cells assessed as cell survival rate at 5 uM incubated for 48 hrs by CCK8 assay relative to control
NCI/ADR-RES [3] = experiment: Reversal activity against doxorubicin-mediated resistance in human MCF7ADR cells assessed as reversal fold by measuring ratio of doxorubicin IC50 to doxorubicin IC50 in presence of test compound at 1 uM incubated for 48 hrs by CCK8 assay

Row | SMILES | fold change (FC) (NCI/ADR-RES [1]) | Activity (NCI/ADR-RES [2]) [%] | Activity (MCF7) [%] | fold change (FC) (NCI/ADR-RES [3])
1 | COc1cccc(C(=O)Nc2cccc(-c3ccc(C(=O)N4CCc5cc(OC)c(OC)cc5C4)o3)c2)c1 | 59.8 | 75 | 59.4 | 
2 | COc1cc2c(cc1OC)CN(C(=O)c1ccc(-c3ccc(NC(=O)c4ccc(Br)cc4)cc3)o1)CC2 | 48.4 | 96.3 | 97.2 | 
3 | COc1cc2c(cc1OC)CN(C(=O)c1ccc(-c3ccc(NC(=O)c4ccc([N+](=O)[O-])cc4)cc3)o1)CC2 | 50.9 | 82.2 | 68.9 | 
4 | COc1cc2c(cc1OC)CN(C(=O)c1ccc(-c3ccc(NC(=O)c4cccc(F)c4)cc3)o1)CC2 | 19.6 | 78.2 | 75.1 | 
5 | C/C=C/C[C@@H](C)[C@@H](O)[C@H]1C(=O)N[C@@H](CC)C(=O)N(C)CC(=O)N(C)[C@@H](CC(C)C)C(=O)N[C@@H](C(C)C)C(=O)N(C)[C@@H](CC(C)C)C(=O)N[C@@H](C)C(=O)N[C@H](C)C(=O)N(C)[C@@H](CC(C)C)C(=O)N(C)[C@@H](CC(C)C)C(=O)N(C)[C@@H](C(C)C)C(=O)N1C [CYCLOSPORINE] | 59.1 | 89.4 | 87.5 | 
6 | COc1cc2c(cc1OC)CN(C(=O)c1ccc(-c3cccc(NC(=O)c4ccccc4Cl)c3)o1)CC2 | 32.8 | 80.8 | 67.3 | 
7 | COc1cc2c(cc1OC)CN(C(=O)c1ccc(-c3ccc(NC(=O)c4ccccc4OC)cc3)o1)CC2 | 24.2 | 98.6 | 99.7 | 
8 | COc1cc2c(cc1OC)CN(C(=O)c1ccc(-c3ccc(NC(=O)c4ccc(Cl)cc4)cc3)o1)CC2 | 124 | 79.8 | 50.1 | 
9 | COc1ccc(S(=O)(=O)N(c2ccc(-c3ccc(C(=O)N4CCc5cc(OC)c(OC)cc5C4)o3)cc2)S(=O)(=O)c2ccc(OC)cc2)cc1 | 21.9 | 94.6 | 92.6 | 
10 | COc1ccc(-c2ccc(C(=O)N3CCc4cc(OC)c(OC)cc4C3)o2)cc1 | 9.1 | 94.1 |  | 
11 | COc1cc2c(cc1OC)CN(C(=O)c1ccc(-c3ccc(NC(=O)c4ccccc4F)cc3)o1)CC2 | 11 | 99.2 | 77.1 | 
12 | COc1cc2c(cc1OC)CN(C(=O)c1ccc(-c3ccc(NC(=O)c4cccc([N+](=O)[O-])c4)cc3)o1)CC2 | 53.5 | 71 | 79.2 | 
13 | COc1cc2c(cc1OC)CN(C(=O)c1ccc(-c3ccc(NC(=O)c4ccc(C#N)cc4)cc3)o1)CC2 | 41 | 56.7 | 85.6 | 
14 | COc1cccc(C(=O)Nc2ccc(-c3ccc(C(=O)N4CCc5cc(OC)c(OC)cc5C4)o3)cc2)c1 | 97.8 | 77.1 | 81.2 | 
15 | COc1cc2c(cc1OC)CN(C(=O)c1ccc(-c3ccc(NC(=O)c4ccc(F)cc4)cc3)o1)CC2 | 53.5 | 70.6 | 53.6 | 
16 | COc1ccc(CNc2ccc(-c3ccc(C(=O)N4CCc5cc(OC)c(OC)cc5C4)o3)cc2)cc1 | 5.2 | 98.2 | 99.7 | 
17 | COc1cc2c(cc1OC)CN(CCc1ccc(NC(=O)c3cc(OC)c(OC)cc3NC(=O)c3cnc4ccccc4c3)cc1)CC2 | 221.1 | 46.7 | 80.7 | 
18 | COc1cc2c(cc1OC)CN(C(=O)c1ccc(-c3ccc(NC(=O)c4ccc(OC(F)(F)F)cc4)cc3)o1)CC2 | 118.3 | 72.8 | 61.3 | 
19 | COc1cc2c(cc1OC)CN(C(=O)c1ccc(-c3ccccc3NC(=O)c3cccc(Cl)c3)o1)CC2 | 45 | 80.4 | 53 | 
20 | COc1cc2c(cc1OC)CN(C(=O)c1ccc(-c3ccccc3NC(=O)c3cccc([N+](=O)[O-])c3)o1)CC2 | 6.1 | 66.2 | 67.5 | 
21 | COc1cc2c(cc1OC)CN(C(=O)c1ccc(-c3cccc(NC(=O)c4cccs4)c3)o1)CC2 | 46.6 | 61.4 |  | 
22 | COc1cc2c(cc1OC)CN(C(=O)c1ccc(-c3cccc(NC(=O)c4cccc(Cl)c4)c3)o1)CC2 | 41 | 97.5 | 85.3 | 
23 | COc1cc2c(cc1OC)CN(C(=O)c1ccc(-c3cccc(NC(=O)c4ccc(Cl)cc4)c3)o1)CC2 | 18 | 85.5 | 88.1 | 
24 | COc1cc2c(cc1OC)CN(C(=O)c1ccc(-c3ccc(NC(=O)c4ccccc4[N+](=O)[O-])cc3)o1)CC2 | 18.6 | 99.5 | 97.8 | 
25 | COc1cc2c(cc1OC)CN(C(=O)c1ccc(-c3ccccc3NC(=O)c3ccccc3OC)o1)CC2 | 20.8 | 74.5 | 81.2 | 

Row | SMILES | fold change (FC) (NCI/ADR-RES [1]) | Activity (NCI/ADR-RES [2]) [%] | Activity (MCF7) [%] | fold change (FC) (NCI/ADR-RES [3])
26 | COc1cc2c(cc1OC)CN(C(=O)c1ccc(-c3cccc(NC(=O)c4ccccc4OC)c3)o1)CC2 | 44.2 | 65 | 53.6 | 
27 | COc1cc2c(cc1OC)CN(C(=O)c1ccc(-c3ccc(NC(=O)c4ccc(-c5ccccc5)cc4)cc3)o1)CC2 | 17.1 | 95 | 98.7 | 
28 | COc1cc2c(cc1OC)CN(C(=O)c1ccc(-c3cccc(NC(=O)c4ccccc4[N+](=O)[O-])c3)o1)CC2 | 19.5 | 62.6 | 73.4 | 
29 | COc1cc(OC)cc(C(=O)Nc2cccc(-c3ccc(C(=O)N4CCc5cc(OC)c(OC)cc5C4)o3)c2)c1 | 30.1 | 73.9 | 63 | 
30 | COc1cc2c(cc1OC)CN(C(=O)c1ccc(-c3ccc(NC(=O)c4cccc(Cl)c4)cc3)o1)CC2 | 267.6 | 83.3 | 74.8 | 
31 | COc1cc2c(cc1OC)CN(C(=O)c1ccc(-c3cccc(NC(=O)c4ccc([N+](=O)[O-])cc4)c3)o1)CC2 | 32.6 | 99.7 | 99.8 | 
32 | COc1ccc(C(=O)Nc2ccc(-c3ccc(C(=O)N4CCc5cc(OC)c(OC)cc5C4)o3)cc2)c(OC)c1 | 36.8 | 66.7 | 63.7 | 
33 | COc1cc2c(cc1OC)CN(C(=O)c1ccc(-c3ccc(NC(=O)c4ccccc4Cl)cc3)o1)CC2 | 66.9 | 82.5 | 65.5 | 
34 | COc1cc2c(cc1OC)CN(C(=O)c1ccc(-c3cccc(NC(=O)c4ccco4)c3)o1)CC2 | 30.4 | 75.9 |  | 5.2
35 | COc1cc2c(cc1OC)CN(C(=O)c1ccc(-c3ccc(NC(=O)c4c(F)c(F)c(F)c(F)c4F)cc3)o1)CC2 | 45.4 | 98.2 | 92.4 | 
36 | COc1ccc(NC(=O)Nc2ccc(-c3ccc(C(=O)N4CCc5cc(OC)c(OC)cc5C4)o3)cc2)cc1 |  | 98.2 | 99.2 | 
37 | COc1ccc(C(=O)Nc2cccc(-c3ccc(C(=O)N4CCc5cc(OC)c(OC)cc5C4)o3)c2)c(OC)c1 | 17.5 | 64.9 | 84.7 | 
38 | COc1cc2c(cc1OC)CN(C(=O)c1ccc(-c3ccccc3NC(=O)c3ccc(Cl)cc3)o1)CC2 | 24 | 84.1 | 83 | 
39 | COc1ccc(C(=O)Nc2cccc(-c3ccc(C(=O)N4CCc5cc(OC)c(OC)cc5C4)o3)c2)cc1 | 72.6 | 62.1 | 32.4 | 
40 | COc1cc2c(cc1OC)CN(C(=O)c1ccc(-c3ccc(NC(=O)c4ccc(C(C)(C)C)cc4)cc3)o1)CC2 | 164 | 61.1 | 44.9 | 
41 | COc1cc2c(cc1OC)CN(C(=O)c1ccc(-c3cccc(NC(=O)c4ccccc4)c3)o1)CC2 | 45.8 | 76.1 |  | 
42 | COc1cc2c(cc1OC)CN(C(=O)c1ccc(-c3ccccc3NC(=O)c3ccc([N+](=O)[O-])cc3)o1)CC2 | 24.3 | 99.6 | 86.2 | 
43 | COc1cccc(C(=O)Nc2ccccc2-c2ccc(C(=O)N3CCc4cc(OC)c(OC)cc4C3)o2)c1 | 26.6 | 83 | 81.2 | 
44 | COc1cc2c(cc1OC)CN(C(=O)c1ccc(-c3ccccc3NC(=O)c3ccccc3Cl)o1)CC2 | 29.2 | 96.3 | 66.5 | 
45 | COc1cc2c(cc1OC)CN(C(=O)c1ccc(-c3ccc(NC(=O)c4ccc(N(C)C)cc4)cc3)o1)CC2 | 40 | 71.8 | 98.6 | 
46 | COc1cc2c(cc1OC)CN(C(=O)c1ccc(-c3ccccc3NC(=O)c3ccccc3)o1)CC2 | 7.5 | 70.9 |  | 
47 | COc1ccc(CCN(C)CCCC(C#N)(c2ccc(OC)c(OC)c2)C(C)C)cc1OC (centres undefined) |  | 75 | 99.6 | 
48 | COc1cc2c(cc1OC)CN(C(=O)c1ccc(-c3cccc(NC(=O)c4cccc([N+](=O)[O-])c4)c3)o1)CC2 | 23 | 76.5 | 69.6 | 
49 | COc1cc2c(cc1OC)CN(C(=O)c1ccc(-c3ccc(NC(=O)c4ccccc4)cc3)o1)CC2 | 221.1 | 73.5 |  | 5.3
50 | COc1cc(OC)cc(C(=O)Nc2ccccc2-c2ccc(C(=O)N3CCc4cc(OC)c(OC)cc4C3)o2)c1 | 13.1 | 97.3 | 70.5 | 
